Here are results for 40 compounds from ChEMBL document CHEMBL1155057, “Studies toward the discovery of the next generation of antidepressants. Part 6: Dual 5-HT1A receptor and serotonin transporter affinity within a class of arylpiperazinyl-cyclohexyl indole derivatives” (Bioorg Med Chem, 2008).

Assay [1] deals with Sodium-dependent serotonin transporter (Rattus norvegicus) (UniProt P31652). The assay can be described thus: Displacement of [3H]paroxetine from rat cortical 5HTT reuptake site at 1 uM. For orientation: Loss of bound radioactivity is the signal in a displacement assay; it reports binding, not function.
Assay [2] concerns the target T1, 5-hydroxytryptamine receptor 1A (Homo sapiens) (UniProt P08908).
T1 sequence (whole entry): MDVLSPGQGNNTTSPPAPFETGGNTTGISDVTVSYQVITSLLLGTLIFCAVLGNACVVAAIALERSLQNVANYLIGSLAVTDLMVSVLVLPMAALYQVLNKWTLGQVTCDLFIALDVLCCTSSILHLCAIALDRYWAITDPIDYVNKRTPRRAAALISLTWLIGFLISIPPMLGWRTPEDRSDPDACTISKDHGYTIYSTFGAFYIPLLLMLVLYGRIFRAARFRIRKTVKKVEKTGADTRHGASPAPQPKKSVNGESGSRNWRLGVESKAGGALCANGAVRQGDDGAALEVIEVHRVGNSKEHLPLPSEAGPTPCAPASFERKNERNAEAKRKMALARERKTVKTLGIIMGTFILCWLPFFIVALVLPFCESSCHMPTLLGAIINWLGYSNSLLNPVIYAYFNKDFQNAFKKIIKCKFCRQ
The assay can be described thus: Intrinsic activity at human 5HT1A receptor expressed in CHO cells by GTPgammaS binding assay relative to serotonin. It counts as functional, cell-based.

Assay [3] addresses Sodium-dependent serotonin transporter (Rattus norvegicus, UniProt P31652).
Assay [4] deals with T2, 5-hydroxytryptamine receptor 1A (Homo sapiens, UniProt P08908).
T2 sequence (P08908 whole entry): T1 sequence (whole entry)
Briefly: biochemical.

The target in assay [5] is Sodium-dependent serotonin transporter (Rattus norvegicus) (UniProt P31652). Briefly: Displacement of [3H]paroxetine from rat cortical 5HTT reuptake site at 100 nM.
Assay [6] addresses T1, 5-hydroxytryptamine receptor 1A (Homo sapiens). Briefly: Displacement of [3H]8-OH-DPAT from human 5HT1A receptor expressed in CHO cells at 1 uM. The assay is classed as cell-based.
The species entered for a further assay is Rattus norvegicus. The settings on record: 100 nM.

Sodium-dependent serotonin transporter (Rattus norvegicus), sequence (P31652 whole entry): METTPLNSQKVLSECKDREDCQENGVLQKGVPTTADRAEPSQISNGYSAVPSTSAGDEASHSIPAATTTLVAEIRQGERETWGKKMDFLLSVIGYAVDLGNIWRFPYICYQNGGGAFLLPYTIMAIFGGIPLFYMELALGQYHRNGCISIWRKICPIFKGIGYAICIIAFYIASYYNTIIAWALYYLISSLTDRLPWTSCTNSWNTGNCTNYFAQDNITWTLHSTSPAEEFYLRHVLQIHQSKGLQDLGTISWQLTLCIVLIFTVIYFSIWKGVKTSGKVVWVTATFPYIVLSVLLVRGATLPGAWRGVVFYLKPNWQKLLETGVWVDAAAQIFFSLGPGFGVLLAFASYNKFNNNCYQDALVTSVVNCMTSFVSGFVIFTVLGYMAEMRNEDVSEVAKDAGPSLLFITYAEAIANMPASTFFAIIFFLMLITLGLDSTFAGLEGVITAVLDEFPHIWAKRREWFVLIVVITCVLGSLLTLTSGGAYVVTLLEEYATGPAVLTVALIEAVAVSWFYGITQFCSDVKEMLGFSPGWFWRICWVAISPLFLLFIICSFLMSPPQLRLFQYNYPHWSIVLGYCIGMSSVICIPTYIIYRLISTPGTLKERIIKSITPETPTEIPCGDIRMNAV
Sodium-dependent serotonin transporter, sequence (P31652 whole entry): as above

The inhibition is the relative decrease from the control value, in per cent. For `Clc1ccc2[nH]cc([C@H]3CC[C@H](N4CCN(c5cccc6[nH]ccc56)CC4)CC3)c2c1`, the inhibition in assay [1] is 20%. A word on the Emax: it is the greatest response seen or fitted, relative to the assay's reference. The Ki is a measure of affinity in units of concentration, obtained from inhibition or displacement. High values mean weaker binding, low ones tighter binding. For the compound `FC(F)(F)c1nc2c(N3CCN([C@H]4CC[C@@H](c5c[nH]c6ccccc65)CC4)CC3)cccc2[nH]1`, the Emax in assay [2] is 0%. The values for the inhibition constant (Ki) in assay [3] and in assay [4] were 105 nM and 16.1 nM, respectively. On the same counts, the results for `N#Cc1ccc2[nH]cc([C@H]3CC[C@H](N4CCN(c5cccc6ncccc56)CC4)CC3)c2c1` are 3%, 4.9 nM and 6.2 nM. For the compound `Fc1cccc2[nH]cc([C@H]3CC[C@@H](N4CCN(c5cccc6[nH]ccc56)CC4)CC3)c12`, the inhibition in assay [5] stood at 27%. With `N#Cc1ccc2[nH]cc([C@H]3CC[C@H](N4CCN(c5cccc6nccnc56)CC4)CC3)c2c1`, in assay [2], the maximal response (Emax) was determined as 11%. For the same compound, the results for the Ki in assay [3] and in assay [4] were 13.6 nM and 9.1 nM, respectively. `N#Cc1ccc2[nH]cc([C@H]3CC[C@@H](N4CCN(c5cccc6nccnc56)CC4)CC3)c2c1` registered an Emax in assay [2] of 0%. For the same compound, the Ki in assay [3] is 1.1 nM; in assay [4], 156 nM. In turn, `Clc1ccc2[nH]cc([C@H]3CC[C@@H](N4CCN(c5cccc6[nH]ccc56)CC4)CC3)c2c1` returned an inhibition in assay [5] of 28%.

With `Fc1cccc2[nH]cc([C@H]3CC[C@H](N4CCN(c5cccc6[nH]ccc56)CC4)CC3)c12`, the inhibition in assay [5] was determined as 0%.

For the compound `Fc1ccc2[nH]cc([C@H]3CC[C@@H](N4CCN(c5cccc6ccccc56)CC4)CC3)c2c1`, the inhibition in assay [6] was 46%. This compound also registered a maximal effect (Emax) in assay [2] of 34%. For the same compound, the Ki in assay [3] came out at 640 nM.

Turning to `Fc1ccc2[nH]cc([C@H]3CC[C@H](N4CCN(c5cccc6[nH]ccc56)CC4)CC3)c2c1`, the inhibition in the assay filed under Rattus norvegicus amounted to 16%. `CC(C)n1cc([C@H]2CC[C@@H](N3CCN(c4cccc5[nH]ccc45)CC3)CC2)c2cc(C#N)ccc21` registered an inhibition constant (Ki) in assay [3] of 38.5 nM. `Cc1[nH]c2ccccc2c1[C@H]1CC[C@H](N2CCN(c3cccc4[nH]ccc34)CC2)CC1` had an inhibition in assay [5] of 12%.

In assay [4], `Fc1ccc2c(c1)[nH]cc2[C@H]1CC[C@H](N2CCN(c3cccc4[nH]ccc34)CC2)CC1` had an inhibition constant (Ki) of 5.4 nM.

In assay [2], `FC(F)(F)c1nc2c(N3CCN([C@H]4CC[C@H](c5c[nH]c6ccccc65)CC4)CC3)cccc2[nH]1` returned an Emax of 29%. In addition, the Ki in assay [3] was 75 nM; in assay [4], 3.6 nM. For `c1cc(N2CCN([C@H]3CC[C@H](c4c[nH]c5ccccc54)CC3)CC2)c2nc[nH]c2c1`, in assay [2], the maximal effect (Emax) came out at 0%. In addition, the inhibition constant (Ki) came out at 75 nM in assay [3] and 1.7 nM in assay [4]. In turn, `Fc1ccc2[nH]cc([C@H]3CC[C@@H](N4CCN(c5cccc6ncccc56)CC4)CC3)c2c1` displayed an Emax in assay [2] of 0%. For the same compound, the figures for the inhibition constant Ki in assay [3] and in assay [4] were 13.8 nM and 97.2 nM, respectively. The compound `c1cc(N2CCN([C@H]3CC[C@@H](c4c[nH]c5ccccc54)CC3)CC2)c2cc[nH]c2c1` registered an Emax in assay [2] of 0%. `Fc1ccc2[nH]cc([C@H]3CC[C@@H](N4CCN(c5cccc6cccnc56)CC4)CC3)c2c1` displayed an Emax in assay [2] of 20%. In assay [2], `N#Cc1ccc2[nH]cc([C@H]3CC[C@@H](N4CCN(c5cccc6ncccc56)CC4)CC3)c2c1` gave an Emax of 0%. The Ki in assay [3] came to 3.5 nM; in assay [4], 58.1 nM.

Turning to `Fc1ccc2[nH]cc([C@H]3CC[C@H](N4CCN(c5cccc6ncccc56)CC4)CC3)c2c1`, the Emax in assay [2] worked out at 0%. Further, the Ki is 73 nM in assay [3] and 8.3 nM in assay [4].

In assay [2], `c1cc(N2CCN([C@H]3CC[C@@H](c4c[nH]c5ccccc54)CC3)CC2)c2nc[nH]c2c1` registered an Emax of 0%. In addition, the Ki in assay [3] was 13 nM; in assay [4], 7.9 nM. On the same counts, the results for `Cc1nc2c(N3CCN([C@H]4CC[C@H](c5c[nH]c6ccccc65)CC4)CC3)cccc2[nH]1` are 0%, 115 nM and 3 nM. Take `Fc1ccc2[nH]cc([C@H]3CC[C@H](N4CCN(c5cccc6cccnc56)CC4)CC3)c2c1`: the Emax in assay [2] worked out at 66%. For the compound `Cc1[nH]c2ccccc2c1[C@H]1CC[C@@H](N2CCN(c3cccc4[nH]ccc34)CC2)CC1`, the inhibition in assay [5] stood at 4%. The compound `N#Cc1ccc2[nH]cc([C@H]3CC[C@@H](N4CCN(c5cccc6cccnc56)CC4)CC3)c2c1` displayed a maximal effect (Emax) in assay [2] of 23%. Moreover, the Ki in assay [3] was determined as 1.3 nM.

With `C1=Nc2cccc(N3CCN([C@H]4CC[C@@H](c5c[nH]c6ncccc65)CC4)CC3)c2C1`, in assay [5], the inhibition was found to be 0%. This compound also registered an inhibition constant (Ki) in assay [4] of 15.8 nM. The compound `Fc1ccc2[nH]cc([C@H]3CC[C@H](N4CCN(c5cccc6ccccc56)CC4)CC3)c2c1` came in with an inhibition in assay [1] of 38%. Further, the Emax in assay [2] was determined as 71%. In addition, the inhibition constant (Ki) in assay [4] came out at 42.6 nM. As to `CC(C)n1cc([C@H]2CC[C@H](N3CCN(c4cccc5[nH]ccc45)CC3)CC2)c2cc(C#N)ccc21`, the results for the inhibition in assay [5] and in assay [6] were 16% and 46%, respectively. Compound `N#Cc1ccc2[nH]cc([C@H]3CC[C@H](N4CCN(c5cccc6cccnc56)CC4)CC3)c2c1` registered an Emax in assay [2] of 0%. In assay [3], this compound showed an inhibition constant (Ki) of 20 nM.

For `Cc1nc2c(N3CCN([C@H]4CC[C@@H](c5c[nH]c6ccccc65)CC4)CC3)cccc2[nH]1`, the Emax in assay [2] came out at 0%. In addition, the results for the inhibitory constant (Ki) in assay [3] and in assay [4] were 61 nM and 10.7 nM, respectively.

As for `Cn1cc([C@H]2CC[C@H](N3CCN(c4cccc5[nH]ccc45)CC3)CC2)c2cc(F)ccc21`, the Ki stood at 67.5 nM in assay [3] and 90 nM in assay [4]. With `N#Cc1ccc2[nH]cc([C@H]3CC[C@@H](N4CCN(c5cccc6[nH]ccc56)CC4)CC3)c2c1`, the Emax in assay [2] was determined as 0%. In assay [3], this compound displayed a Ki of 1.6 nM.

On to `N#Cc1ccc2[nH]cc([C@H]3CC[C@H](N4CCN(c5cccc6[nH]ccc56)CC4)CC3)c2c1`, for which, in assay [2], the Emax stood at 11%. The same compound showed an inhibition constant Ki in assay [3] of 8.5 nM. Compound `C1=Nc2cccc(N3CCN([C@H]4CC[C@H](c5c[nH]c6ncccc65)CC4)CC3)c2C1` came in with an inhibition in assay [5] of 18%. The same compound showed a Ki in assay [4] of 7.8 nM. Compound `COc1ccc2[nH]cc([C@H]3CC[C@H](N4CCN(c5cccc6[nH]ccc56)CC4)CC3)c2c1` had an inhibition in assay [1] of 45%. In assay [4], the Ki worked out at 2.9 nM. Compound `c1cc(N2CCN([C@H]3CC[C@H](c4c[nH]c5ccccc54)CC3)CC2)c2cc[nH]c2c1` registered an inhibitory constant (Ki) in assay [4] of 5.3 nM. `CCCn1cc([C@H]2CC[C@H](N3CCN(c4cccc5[nH]ccc45)CC3)CC2)c2cc(C#N)ccc21` returned an inhibition in assay [6] of 46%. Compound `Fc1ccc2c(c1)[nH]cc2[C@H]1CC[C@@H](N2CCN(c3cccc4[nH]ccc34)CC2)CC1` returned an Emax in assay [2] of 0%. Compound `COc1ccc2[nH]cc([C@H]3CC[C@@H](N4CCN(c5cccc6[nH]ccc56)CC4)CC3)c2c1` returned an inhibition in assay [5] of 25%. With `Cn1cc([C@H]2CC[C@@H](N3CCN(c4cccc5[nH]ccc45)CC3)CC2)c2cc(F)ccc21`, the Ki in assay [3] was 11.6 nM; in assay [4] it was 124 nM.
